{"source": "patent US20250208149A1", "about": "“WEE1 COMPOUND FOR TREATING UTERINE SEROUS CARCINOMA” (Recurium IP Holdings, LLC, priority 2022, published 2025)", "assay_type_in_all_cases": "cell-based", "key": {"HEC-59 cells": {"system": "HEC-59 cells", "experiment": "ZN-c3 dose response, percent cell density (cell titer glow), PPP2R1A siRNA vs scrambled control", "conditions": "72 h, HEC-59 cells (PPP2R1A wild-type)", "experimental": "(§1) FIG. 11 depicts the percent cell density of HEC1B and HEC-59 (endometrial cancer cell lines) cells after treatment with a 10-point dose response of ZN-c3 for 72 hours, comparing cells transfected with siRNA to PPP2R1A against those transfected with a scrambled control siRNA. […] HEC-59 is PPP2R1A wild-type. Percent cell density is calculated using cell titer glow analysis. HEC1B PPP2R1A siRNA transfected cells have approximately 1.4-fold increase in sensitivity to ZN-c3 while HEC-59 PPP2R1A siRNA transfected cells have approximately 2.5 fold increase in sensitivity to ZN-c3 (TABLE 6).\n(§2) The effect of PPP2R1A knockdown on influencing cancer cell susceptibility to ZN-c3 was evaluated. Various cancer cell lines were transfected with PPP2R1A siRNA or control scrambled siRNA and the cells were treated with a 10 point dose response of ZN-c3 for 72 hours. Percent cell density was calculated using cell titer glow analysis. The PPP2R1A siRNA targeted the following bases Chr.19: 52189802-52226425. SiRNA transfection was started 48 hours prior to treatment with ZN-c3. The ZN-c3 dose response evaluation included ZN-c3 dosages at […].\n(§3) Endometrial cancer cell lines HEC1B and HEC-59 were treated with PPP2R1A siRNA or control siRNA and transfected cells were assessed for sensitivity to ZN-c3 by measurement of reduction in percent cell density (FIG. 11). PPP2R1A siRNA mediated knockdown of PPP2R1A was evaluated by comparison of PPP2R1A protein expression via western blot in conditions treated with siCTRL and siPPPR12A with vinculin used as a control (FIG. 12). Knockdown of PPP2R1A by siRNA was limited in HEC1B cells, due to the missense mutations W257L and L429F within PPP2R1A in this cell line."}, "HEC1B cells": {"system": "HEC1B cells", "experiment": "ZN-c3 dose response, percent cell density (cell titer glow), PPP2R1A siRNA vs scrambled control", "conditions": "Homo sapiens, HEC-1B, 72 h, HEC1B cells (PPP2R1A W257L; L429F)", "experimental": "as §1, §2, §3"}, "[1]": {"system": "SKOV3 ovarian cancer cells", "experiment": "ZN-c3 dose response, percent cell density (cell titer glow), CRISPR knockout of PPP2R1A vs non-targeting guide RNA", "conditions": "Homo sapiens, SK-OV-3, 72 h", "experimental": "FIG. 13 depicts the percent cell density of SKOV3 ovarian cancer cells after treatment with a 10-point dose response of ZN-c3 for 72 hours, comparing cells transduced with a non-targeting guide RNA to against those with genetic knockout of PPP2R1A after transduction with a CRISPR guide RNA targeting PPP2R1A. Percent cell density is calculated using cell titer glow analysis. PPP2R1A CRISPR knockout cells have approximately 1.7-fold increase in sensitivity to ZN-c3 (TABLE 7).\nHaving observed that siRNA mediated knockdown of PPP2R1A sensitized cancer cell lines to treatment with ZN-c3, it was also of interest to evaluate if CRISPR mediated PPP2R1A knockout produced a similar effect. […] Percent cell density was calculated using cell titer glow analysis.\nThe ovarian cancer cell line SKOV3 was treated with a CRISPR guide RNA targeting PPP2R1A or nontargeting guide RNA and transfected cells were assessed for sensitivity to ZN-c3 by measurement of reduction in percent cell density (FIG. 13). CRISPR mediated knockout of PPP2R1A was evaluated by comparison of PPP2R1A protein expression via Western blot in conditions treated with nontargeting guide RNA and PPPR12A targeting CRISPR guide RNA with beta actin as a control (FIG. 14)."}, "[2]": {"system": "OV17R ovarian cancer cells", "experiment": "ZN-c3 dose response, percent cell density (cell titer glow)", "experimental": "FIG. 17 depicts the percent cell density of OV17R ovarian cancer cells after treatment with a 10-point dose response of ZN-c3 for 72 hours. OV17R has the S256F hotspot missense mutation in PPP2R1A. […] Percent cell density is calculated using cell titer glow analysis.\nHaving observed that siRNA mediated knockdown of PPP2R1A sensitized cancer cell lines to treatment with ZN-c3, it was also of interest to evaluate if CRISPR mediated PPP2R1A knockout produced a similar effect. Various cancer cell lines were transfected with a CRISPR guide RNA targeting PPP2R1A or nontargeting guide RNA and the cells were treated with a 10-point dose response of ZN-c3 for 72 hours. The 10-point dose response to ZN-c3 included the same dosages used in Example 1. As in Example 1, no media change was performed during the 72-hour ZN-c3 dose response evaluation period. Fewer than 20 cell passages were completed between the CRISPR mediated knockout and ZN-c3 treatment. CRISPR was performed by targeting PPP2R1A with a PPP2R1A sgRNA sequence. Percent cell density was calculated using cell titer glow analysis.\nThe ovarian cancer cell line OV17R was assessed for sensitivity to ZN-c3 by measurement of reduction in percent cell density (FIG. 17)."}, "[3]": {"system": "HEC-59 endometrial cancer cells", "experiment": "Percent inhibition of cell growth, ZN-c3, LB-100 or ZN-c3+LB-100 (cell titer glow)", "conditions": "HEC-59 (PPP2R1A wild-type), 72 hours; ZN-c3 400 nM, LB-100 1 μM", "experimental": "FIG. 18 depicts the percent inhibition of cell growth in HEC-59 endometrial cancer cells after treatment with ZN-c3 alone, the PP2A catalytic inhibitor LB-100 alone, or the combination of ZN-c3+LB-100. HEC-59 cell line is PPP2R1A wild-type. […] Percent inhibition is calculated using cell titer glow analysis.\nVarious cancer cell lines were treated with ZN-c3 alone, the PP2A catalytic inhibitor LB-100 alone, or the combination of ZN-c3+LB-100. As in Example 1 and Example 2, the treatment period was 72 hours and percent inhibition was calculated using cell titer glow analysis.\nThe endometrial cancer cell line HEC-59 was assessed for sensitivity to ZN-c3 alone, LB-100 alone, or the combination of ZN-c3+LB-100 (FIG. 18)."}}, "note": "“Also recorded” adds a separate entry of the source."}
{"smiles": "C=CCn1c(=O)c2cnc(Nc3ccc(N4CCN(C)CC4)cc3)nc2n1-c1ccc2c(n1)[C@@](O)(CC)CC2", "note": "[ZN-c3, (R)-2-allyl-1-(7-ethyl-7-hydroxy-6,7-dihydro-5H-cyclopenta[b]pyridin-2-yl)-6-((4-(4-methylpiperazin-1-yl)phenyl)amino)-1,2-dihydro-3H-pyrazolo[3,4-d]pyrimidin-3-one]", "values": [{"measurement": "EC50", "setting": "HEC-59 cells; siCTRL", "value": 1040, "unit": "nM"}, {"measurement": "EC50", "setting": "HEC-59 cells; siPPP2R1A", "value": 436, "unit": "nM"}, {"measurement": "EC50", "setting": "HEC1B cells; siCTRL", "value": 707, "unit": "nM"}, {"measurement": "EC50", "setting": "HEC1B cells; siPPP2R1A", "value": 490, "unit": "nM"}, {"measurement": "EC50", "setting": "[1]; sgNT (non-targeting guide RNA)", "value": 386, "unit": "nM"}, {"measurement": "EC50", "setting": "[1]; sgPPP2R1A (CRISPR knockout)", "value": 224, "unit": "nM"}, {"measurement": "sensitivity of cell line to ZN-c3 treatment", "setting": "[2]; OV17R cells (PPP2R1A S256F hotspot missense mutation)", "value": "highly susceptible; also recorded: highly sensitive"}, {"measurement": "EC50", "setting": "[2]; OV17R cells (PPP2R1A S256F), 72 hours", "value": 139, "unit": "nM"}, {"measurement": "percent inhibition of cell growth", "setting": "[3]", "value": "approximately 25%"}]}
